US20020137929A1, “1 - (3-heterocyclylphenyl) isothiourea, -isourea, -guanidine and -amidine herbicidal agents” (Intellectual Property Department, BASF Aktiengesellschaft, priority 1998, published 2002)

What was measured:
CYPSE (Flatsedge) = assay: Preemergence weed control under flooded paddy conditions; format: in vivo, Cyperus serotinus; settings: rated 3-4 weeks after treatment
Procedure, shortened: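 Values are visual 0-9 scores against a control for a preemergence application into paddy flood water at about 0.0313 to 0.500 kg/ha. Greenhouse duration was three to four weeks.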

ZEAMX (Corn, Field) [1] = assay: Postemergence herbicidal evaluation; format: in vivo, Zea mays; settings: postemergence
Procedure, shortened: (§1)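 Compound is applied as a foliar spray to seedlings about two weeks old, formulated in equal parts acetone and water with 0.5% TWEEN 20 and delivered at 40 psi to give about 0.0156–0.500 kg per hectare. Injury is rated visually 0–9 after four to five weeks.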

CYPIR (Rice Flatsedge) = assay: Preemergence weed control under flooded paddy conditions; format: in vivo, Cyperus iria; settings: rated 3-4 weeks after treatment
Procedure, shortened: (§2)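 Seeds or propagules sown in top 0.5 cm of silt loam soil, flooded 1.5 to 3 cm above surface throughout. Compound in 50/50 v/v aqueous/acetone pipetted into flood water at about 0.0313 to 0.500 kg/ha. Visual 0-9 rating versus control after three to four weeks in greenhouse.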

ECHCG (Barnyardgrass) = assay: Preemergence herbicidal evaluation; format: in vivo, Echinochloa crus-galli; settings: rated 4-5 weeks after treatment
Procedure, shortened: (§3)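 Seeds were planted in potting soil in cups, then sprayed preemergence with the test compound in aqueous acetone at about 0.0156 to 0.500 kg per hectare. Cups were kept under greenhouse conditions and visually rated 4–5 weeks after treatment on a 0–9 scale against an untreated control.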

[2] = tested on: TRZAWR (Wheat, Winter, cv Riband); assay: Preemergence herbicidal evaluation; format: in vivo, Triticum aestivum; settings: rated 4-5 weeks after treatment
Procedure, shortened: as §3

SETVI (Foxtail, Green) [3] = assay: Postemergence herbicidal evaluation; format: in vivo, Setaria viridis; settings: postemergence
Procedure, shortened: as §1

ORYSAT (Rice, Tebonnet) = assay: Postemergence herbicidal evaluation; format: in vivo, Oryza sativa, (L.) Tebonnet; settings: postemergence
Procedure, shortened: as §1

SETVI (Foxtail, Green) [4] = assay: Preemergence herbicidal evaluation; format: in vivo, Setaria viridis; settings: rated 4-5 weeks after treatment
Procedure, shortened: as §3

ZEAMX (Corn, Field) [5] = assay: Preemergence herbicidal evaluation; format: in vivo, Zea mays; settings: rated 4-5 weeks after treatment
Procedure, shortened: as §3

[6] = tested on: ECHORC (Watergrass (Calif.)); assay: Preemergence weed control under flooded paddy conditions; format: in vivo, Echinochloa oryzoides; settings: rated 3-4 weeks after treatment
Procedure, shortened: as §2

CCOC(=O)CN1C(=O)C(C(=O)OC(C)(C)C)SC1=Nc1cc(-n2c(=O)cc(C(F)(F)F)n(C)c2=O)c(F)cc1Cl (stereo not drawn) [Compound 167, 5-Carboxy-2-{{2-chloro-5-[3,6-dihydro-3-methyl-2,6-dioxo-4-(trifluoromethyl)-1(2H)-pyrimidinyl]-4-fluorophenyl}imino}-4-oxo-3-thiazolidineacetic acid, 5-tert-butyl ethyl ester]
1.0: Preemergence herbicidal rating TRZAWR ([2]; 0.0625 kg/ha)
4.5: Herbicidal rating ZEAMX (ZEAMX (Corn, Field) [1]; rate 0.0156 kg/ha)
6.0: Preemergence herbicidal rating ECHCG (ECHCG (Barnyardgrass); 0.0625 kg/ha) | Preemergence herbicidal rating ZEAMX (ZEAMX (Corn, Field) [5]; 0.2500 kg/ha)
7.0: herbicidal effect rating, CYPIR (CYPIR (Rice Flatsedge); 0.0313 kg/ha) | Preemergence herbicidal rating SETVI (SETVI (Foxtail, Green) [4]; 0.0313 kg/ha) | Preemergence herbicidal rating ZEAMX (ZEAMX (Corn, Field) [5]; 0.5000 kg/ha)
5.5: Herbicidal rating ZEAMX (ZEAMX (Corn, Field) [1]; rate 0.0313 kg/ha) | Herbicidal rating ZEAMX (ZEAMX (Corn, Field) [1]; rate 0.0625 kg/ha) | Herbicidal rating ZEAMX (ZEAMX (Corn, Field) [1]; rate 0.1250 kg/ha)
5.0: herbicidal effect rating, CYPSE (CYPSE (Flatsedge); 0.2500 kg/ha) | Preemergence herbicidal rating TRZAWR ([2]; 0.5000 kg/ha) | Preemergence herbicidal rating SETVI (SETVI (Foxtail, Green) [4]; 0.0156 kg/ha)
3.0: herbicidal effect rating, CYPSE (CYPSE (Flatsedge); 0.1250 kg/ha) | Preemergence herbicidal rating TRZAWR ([2]; 0.1250 kg/ha) | Herbicidal rating ORYSAT (ORYSAT (Rice, Tebonnet); rate 0.0156 kg/ha) | Preemergence herbicidal rating ZEAMX (ZEAMX (Corn, Field) [5]; 0.0625 kg/ha) | Preemergence herbicidal rating ZEAMX (ZEAMX (Corn, Field) [5]; 0.1250 kg/ha)
9.0: herbicidal effect rating, CYPIR (CYPIR (Rice Flatsedge); 0.0625 kg/ha) | herbicidal effect rating, CYPIR (CYPIR (Rice Flatsedge); 0.1250 kg/ha) | herbicidal effect rating, CYPIR (CYPIR (Rice Flatsedge); 0.2500 kg/ha) | Preemergence herbicidal rating ECHCG (ECHCG (Barnyardgrass); 0.1250 kg/ha) | Preemergence herbicidal rating ECHCG (ECHCG (Barnyardgrass); 0.2500 kg/ha) | Herbicidal rating SETVI (SETVI (Foxtail, Green) [3]; rate 0.0625 kg/ha) | Herbicidal rating SETVI (SETVI (Foxtail, Green) [3]; rate 0.1250 kg/ha) | Preemergence herbicidal rating SETVI (SETVI (Foxtail, Green) [4]; 0.0625 kg/ha) | Preemergence herbicidal rating SETVI (SETVI (Foxtail, Green) [4]; 0.1250 kg/ha) | Preemergence herbicidal rating SETVI (SETVI (Foxtail, Green) [4]; 0.2500 kg/ha) | Preemergence herbicidal rating SETVI (SETVI (Foxtail, Green) [4]; 0.5000 kg/ha) | herbicidal effect rating, ECHORC ([6]; 0.0313 kg/ha) | herbicidal effect rating, ECHORC ([6]; 0.0625 kg/ha) | herbicidal effect rating, ECHORC ([6]; 0.1250 kg/ha) | herbicidal effect rating, ECHORC ([6]; 0.2500 kg/ha)
2.0: Herbicidal rating SETVI (SETVI (Foxtail, Green) [3]; rate 0.0156 kg/ha)
8.0: Preemergence herbicidal rating ECHCG (ECHCG (Barnyardgrass); 0.5000 kg/ha)
0.0: herbicidal effect rating, CYPSE (CYPSE (Flatsedge); 0.0313 kg/ha) | herbicidal effect rating, CYPSE (CYPSE (Flatsedge); 0.0625 kg/ha) | Preemergence herbicidal rating ECHCG (ECHCG (Barnyardgrass); 0.0156 kg/ha) | Preemergence herbicidal rating ECHCG (ECHCG (Barnyardgrass); 0.0313 kg/ha) | Preemergence herbicidal rating TRZAWR ([2]; 0.0156 kg/ha) | Preemergence herbicidal rating TRZAWR ([2]; 0.0313 kg/ha) | Preemergence herbicidal rating ZEAMX (ZEAMX (Corn, Field) [5]; 0.0156 kg/ha) | Preemergence herbicidal rating ZEAMX (ZEAMX (Corn, Field) [5]; 0.0313 kg/ha)
4.0: Preemergence herbicidal rating TRZAWR ([2]; 0.2500 kg/ha) | Herbicidal rating SETVI (SETVI (Foxtail, Green) [3]; rate 0.0313 kg/ha) | Herbicidal rating ORYSAT (ORYSAT (Rice, Tebonnet); rate 0.1250 kg/ha)
3.5: Herbicidal rating ORYSAT (ORYSAT (Rice, Tebonnet); rate 0.0313 kg/ha) | Herbicidal rating ORYSAT (ORYSAT (Rice, Tebonnet); rate 0.0625 kg/ha)
